Values joined by “and” are separate entries in the source; they are usually repeats but may differ in a detail not shown here. Identical values can stand only once.
Columns and labels:
Mycoplasma pneumoniae = assay: In vivo pharmacodynamic study: Mycoplasma pneumoniae loads in BALF of infected mice; design: species or system BALB/c mice; settings: for microbial reduction in BALF: 96 h; for MPcounts in BALF (AV) / MPcounts in BALF: tiamulin 40 mg/kg IM; for MPcounts in BALF (AV): group AV; for MPcounts in BALF: individual mice, listed as TiamulinIM
Method: (§1) Adult BALB/c mice (20–22 g) were divided into a control group, a positive group, and compound 16C groups at low (20 mg/kg), medium (40 mg/kg), and high-dose (80 mg/kg) levels and oral and intramuscular tiamulin treatment groups (40 mg/kg). We formulated the above dose range based on the dose at which tiamulin was approved for injection (10–20 mg/kg) and the dose previously reported (45 mg/kg) ([EMA, 1999]; [Xiao et al., 2016]). In summary, we selected similar doses for compound 16C in vivo study. 40 mg/kg was used as an intermediate value, one-half of it as a low dose, and two times of it as a high dose. To prepare the challenge solution, logarithmic phase culture suspensions were centrifuged at 1700 g for 10 min, and the pellets were suspended in sterile PBS to obtain 1 × 10^9 CFU/mL. Before the challenge, mice were anesthetized with tribromoethanol (250 mg/kg, IP). Mice in the control groups were intratracheally inoculated with sterile PBS, whereas mice in the other groups were intratracheally challenged with 50 μL (1 × 10^9 CFU/mL) M. pneumoniae suspension once a day for 3 days. Compound 16C and tiamulin (tiamulin-IM group) dissolved using the method mentioned in pharmacokinetic studies, and the tiamulin fumarate soluble powder was dissolved in ddH2O for oral administration. After the final challenge, antibiotics were administered at low, medium, and high-dose levels (see above) at 10 a.m. and 10 p.m. daily for 4 consecutive days. Normal saline containing 5% DMSO and 5% Tween-80 was administered as control and positive groups by thigh intramuscular injection. To compare the efficacy of compound 16C and tiamulin under the same route of administration, we used the original tiamulin for intramuscular administration in the same formulation. On the other hand, tiamulin fumarate soluble powder, approved for oral administration to treat animal mycoplasma diseases in China, was administered to mice by gavage. Based on a clinical study of lefamulin in community-acquired bacterial pneumonia (CABP), subjects were administered twice a day and the 96 ± 24 h of starting treatment was an essential point for early clinical response (ECR) ([Paukner et al., 2022]). We therefore stopped treatment at 96 h and sampled at 192 h to explore whether the disease worsened after cessation of treatment. Bronchoalveolar lavage fluid (BALF) and lungs were collected at 0, 96, 192 h (Samples of 0 h were collected before starting treatment, and mice were fed ad libitum without drug treatment during 96–192 h) after the first dose, BALF for cytokine and cytological analysis and lung for histopathological evaluation.
(§2) Bronchoalveolar lavage was performed according to a standardized method ([Van Hoecke et al., 2017]). BALF was obtained following infusion of 0.5 mL PBS via tracheal cannulation into the lung twice (total 1 mL), and 200 µL was used for mycoplasma counts. The remaining BALF was centrifuged at 300 g for 10 min to separate the debris. The supernatants were stored at −80°C, and the debris was resuspended in the same volume of PBS containing red blood cell lysis buffer. A hemocytometer was used to count total cell numbers in BALF, and cell smears (Diff-Quik staining) were prepared to calculate the percentages of neutrophils, macrophages, and lymphocytes. IFN-γ, TNF-α, and CXCL1 levels in BALF samples were assessed using commercial ELISA kits using guidelines recommended by the manufacturer (Elabscience, Wuhan, China). Parallel data for each experimental group at each time point were obtained from six different mice.

IFN-γ = IFN-γ in BALF of M. pneumoniae-infected mice (ELISA); assay type: in vivo, BALB/c mice; settings: tiamulin 40 mg/kg IM; for IFN-γ in BALF (AV): group AV; for IFN-γ in BALF: individual mice, listed as Tiamulin-IM
Method: as §1, §2

[1] = system: Mycoplasma pneumoniae-infected mice (lung tissue); assay: Histopathological assessment of lung tissue (HPS, response and recovery rates) in M. pneumoniae-infected mice; assay type: in vivo, BALB/c mice; design: HPS value (mean) / HPS: scale not given here; settings: for HPS: individual mice, listed as TiamulinIM
Method: as §1
Lung tissues were collected at 0, 96, and 192 h following drug administration. Lungs were collected from 6 mice in each group at 96 h and 13–15 mice in each group at 192 h. In addition, the lungs of 8 untreated infected mice were taken at 0 h as initial controls. Lung tissues were fixed in 4% paraformaldehyde, and whole-mount sections of paraffin-embedded lungs were stained with hematoxylin and eosin (H&E). The histopathologic score (HPS) was determined according to published protocols by a single pathologist who was unaware of the treatment status and groups of the animals ([Cimolai et al., 1992]). The HPS was based on individual grading of peribronchiolar/bronchial infiltrate, bronchiolar/bronchial luminal exudate, perivascular infiltrate, and parenchymal pneumoniae.

[2] = M. pneumoniae-infected mice, IM, n=13-15
[3] = M. pneumoniae-infected mice, PO, n=13-15
[4] = tiamulin 40 mg/kg IM, from HPS at 192 h

## C=C[C@]1(C)C[C@@H](OC(=O)CSCCN(CC)CC)[C@]2(C)[C@H](C)CC[C@]3(CCC(=O)[C@H]32)[C@@H](C)[C@@H]1O [tiamulin, Tiamulin, reference compound]
Mycoplasma pneumoniae; tiamulin 40 mg/kg IM twice daily 4 d
  microbial reduction in BALF: 2.26 log10 CFU/mL
Mycoplasma pneumoniae; 96h
  MPcounts in BALF (AV): 3.805 Log10CFU/mL
  MPcounts in BALF: 3.506 Log10CFU/mL and 3.899 Log10CFU/mL and 3.382 Log10CFU/mL and 5.052 Log10CFU/mL and 3.608 Log10CFU/mL and 3.384 Log10CFU/mL
Mycoplasma pneumoniae; 192 h
  MPcounts in BALF (AV): 3.657 Log10CFU/mL
Mycoplasma pneumoniae; 192h
  MPcounts in BALF: 3.57 Log10CFU/mL (2×) and 3.868 Log10CFU/mL and 3.692 Log10CFU/mL and 3.619 Log10CFU/mL and 3.625 Log10CFU/mL
Mycoplasma pneumoniae; tiamulin 40 mg/kg PO (tiamulin fumarate soluble powder) twice daily 4 d
  microbial reduction in BALF: 1.17 log10 CFU/mL
IFN-γ; 96h
  IFN-γ in BALF (AV): 32.2202 pg/mL
IFN-γ; 96 h
  IFN-γ in BALF: 44.0596 pg/mL and 23.033 pg/mL and 20.7601 pg/mL and 28.3723 pg/mL and 44.8757 pg/mL
IFN-γ; 192 h
  IFN-γ in BALF (AV): 31.227 pg/mL
  IFN-γ in BALF: 40.7875 pg/mL and 41.6067 pg/mL and 42.4252 pg/mL and 23.316 pg/mL and 21.0452 pg/mL and 18.1814 pg/mL
[1]; [2]
  Recovery: 35.7%
  Response: 100%
[1]; [3]
  Recovery: 6.67%
  Response: 86.67%
[1]; tiamulin 40 mg/kg IM, 96 h
  HPS value (mean): 1
[1]; tiamulin 40 mg/kg IM, 96h
  HPS: 2.5 and 0.5 and 1
[1]; tiamulin 40 mg/kg IM, 192h
  HPS: 0.5 and 0 and 1
[1]; [4]
  Recovery: 35.7%
  Response: 100%

Reference: PMC11695783 (Frontiers in Pharmacology, 2024)
